The record followed here is patent US10208074B2, “Pyrazole compounds and method for making and using the compounds” (Rigel Pharmaceuticals, Inc., priority 2015, dated 2019).

Structures are written as SMILES. Where a name gives a salt, the structure may show the parent alone. Read-outs that look alike come from different tables or passages of the source.

In one experiment the test system is IL-23p19. Kind of experiment: LPS induced IL23p19 in THP-1 cells (with IFNγ primed) assay. Format: cell-based, Human. Particulars: THP-1 cells, IFNγ primed, LPS 1 ug/mL, 18 hours, 10 pt, read-out: IL23-p19 ELISA, THP1-IFNy, LPS, 10 pt EC50. The essentials:
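Readout is secreted IL-23p19, quantified by chemiluminescent sandwich ELISA after 18 h LPS (1 ug/mL) stimulation of THP-1 cells that had been IFNγ-primed (50 ng/mL, ~18 h) and given compound 1 h beforehand at 37 °C. EC50 derived by curve fit; cytotoxicity tracked with Cell Titer Glo.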

The next experiment has as its system IL-23 (p19/p40). Kind of experiment: IL23-p19 ELISA, Dendritic, LPS (compound screening using DC cells). Particulars: PBMC-derived DC cells, IFNγ primed, LPS 1 μg/ml, 18 hours, 10 pt, read-out: IL23-p19 ELISA, Dendritic, LPS, 10 pt, EC50. It is filed as cell-based, Human. The essentials:
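IL-23 in supernatants quantified by sandwich ELISA (anti-p19 capture, biotinylated anti-p40 detection, chemiluminescent readout) after 18 h LPS (1 μg/ml) stimulation. Cells were monocyte-derived DCs (GM-CSF/IL-4, 7 d), IFNγ-primed 24 h and given compound 1 h before LPS; viability by CellTiter Glo.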
(In general: ELISA stands for enzyme-linked immunosorbent assay.)

The EC50 is the concentration that produces a half-maximal response. For the molecule `CC(C)O[C@H]1C[C@@H](n2cc(NC(=O)c3ccc(-c4cn[nH]c4)o3)c(-c3ccccn3)n2)C1` [Compound I-114, N-(1-((1s,3s)-3-isopropoxycyclobutyl)-3-(pyridin-2-yl)-1H-pyrazol-4-yl)-5-(1H-pyrazol-4-yl)furan-2-carboxamide], the EC50 in the experiment on IL-23p19 (Homo sapiens, THP-1, 18 h) worked out at 49.3 nM; in the experiment on IL-23 (p19/p40) (Homo sapiens, 18 h), 61.6 nM.
For `O=C(Nc1cn(C2CCOCC2)nc1-c1ccccn1)c1ccc(-c2cn[nH]c2)o1` [Compound I-23, 5-(1H-pyrazol-4-yl)-N-(3-(pyridin-2-yl)-1-(tetrahydro-2H-pyran-4-yl)-1H-pyrazol-4-yl)furan-2-carboxamide] the same measures were 21.7 nM and 37.2 nM.
For `COCCn1cc(NC(=O)c2ccc(-c3cnn(C(=O)OC(C)(C)COCc4ccc(OC)cc4)c3)o2)c(-c2ccccn2)n1` [Compound I-22, 1-((4-methoxybenzyl)oxy)-2-methylpropan-2-yl 4-(5-((1-(2-methoxyethyl)-3-(pyridin-2-yl)-1H-pyrazol-4-yl)carbamoyl)furan-2-yl)-1H-pyrazole-1-carboxylate] the same measures were 204 nM and 1550 nM.
Regarding `O=C(Nc1cn([C@H]2C[C@H](OCC(F)(F)F)C2)nc1-c1ccccn1)c1ccc(-c2cn[nH]c2)o1` [Compound I-128, 5-(1H-pyrazol-4-yl)-N-(3-(pyridin-2-yl)-1-(3-(2,2,2-trifluoroethoxy)cyclobutyl)-1H-pyrazol-4-yl)furan-2-carboxamide formate], the half-maximal effective concentration (EC50) was 134 nM in the experiment on IL-23p19 (Homo sapiens, THP-1, 18 h) and 60.4 nM with IL-23 (p19/p40) (Homo sapiens, 18 h).
In the case of `O=C(Nc1cn(C2CCC2)nc1-c1ccccn1)c1csc(-c2cn[nH]c2)n1` [II-121, N-(1-cyclobutyl-3-(pyridin-2-yl)-1H-pyrazol-4-yl)-2-(1H-pyrazol-4-yl)thiazole-4-carboxamide], the EC50 in the experiment with IL-23p19 (Homo sapiens, THP-1, 18 h) was found to be 98.6 nM; with IL-23 (p19/p40) (Homo sapiens, 18 h), 44.4 nM.
For `O=C(Nc1cn([C@H]2CC[C@@H](O)C2)nc1-c1ccccn1)c1csc(-c2cn[nH]c2)n1` (relative stereo) [II-149, N-(1-((cis)-3-hydroxycyclopentyl)-3-(pyridin-2-yl)-1H-pyrazol-4-yl)-2-(1H-pyrazol-4-yl)thiazole-4-carboxamide] the same measures were 34.3 nM and 56.8 nM.
Consider `COCCn1cc(NC(=O)c2ccc(-c3c[nH]nc3C)o2)c(-c2ccccn2)n1` [Compound I-9, N-(1-(2-methoxyethyl)-3-(pyridin-2-yl)-1H-pyrazol-4-yl)-5-(3-methyl-1H-pyrazol-4-yl)furan-2-carboxamide], for which the figures for the EC50 in the experiment on IL-23p19 and with IL-23 (p19/p40) were 281 nM and 309 nM, respectively.
On to `CCO[C@H]1C[C@@H](n2cc(NC(=O)c3csc(-c4cnn(COP(=O)(O)O)c4)n3)c(-c3ccccn3)n2)C1` [II-77, (4-(4-((1-((1,3-cis)-3-ethoxycyclobutyl)-3-(pyridin-2-yl)-1H-pyrazol-4-yl)carbamoyl)thiazol-2-yl)-1H-pyrazol-1-yl)methyl phosphate bis-potassium salt], for which the EC50 in the experiment with IL-23p19 (phosphate bis-potassium salt) came out at 147 nM; in the experiment with IL-23 (p19/p40) (phosphate bis-potassium salt), 146 nM.
`O=C(Nc1cn(C2CCOC2)nc1-c1ccccn1)c1csc(-c2cn[nH]c2)n1` (stereo not shown) [II-43, 2-(1H-pyrazol-4-yl)-N-(3-(pyridin-2-yl)-1-(tetrahydrofuran-3-yl)-1H-pyrazol-4-yl)thiazole-4-carboxamide formic acid salt]: the EC50 in the experiment on IL-23p19 (Homo sapiens, THP-1, 18 h) came out at 27.8 nM; in the experiment on IL-23 (p19/p40) (Homo sapiens, 18 h), 50.2 nM.
On to `CCO[C@H]1C[C@@H](n2cc(NC(=O)c3ccc(-c4cn[nH]c4)o3)c(-c3cccc(C(F)(F)F)n3)n2)C1` [Compound I-116, N-(1-((1s,3s)-3-ethoxycyclobutyl)-3-(6-(trifluoromethyl)pyridin-2-yl)-1H-pyrazol-4-yl)-5-(1H-pyrazol-4-yl)furan-2-carboxamide], for which the half-maximal effective concentration (EC50) is 226 nM with IL-23p19 (Homo sapiens, THP-1, 18 h) and 218 nM with IL-23 (p19/p40) (Homo sapiens, 18 h).
As for `CCO[C@H]1C[C@@H](n2cc(NC(=O)c3csc(-c4cnn(COP(=O)(O)O)c4)n3)c(-c3ncccc3F)n2)C1` [II-164, (4-(4-((1-((cis)-3-ethoxycyclobutyl)-3-(3-fluoropyridin-2-yl)-1H-pyrazol-4-yl)carbamoyl)thiazol-2-yl)-1H-pyrazol-1-yl)methyl disodium phosphate], the EC50 was determined as 111 nM with IL-23p19 and 912 nM in the experiment on IL-23 (p19/p40).
Regarding `O=C(Nc1cn(C2CN(C(=O)NC3CC3)C2)nc1-c1ccccn1)c1ccc(-c2cn[nH]c2)o1` [Compound I-87, 3-[4-{5-(1H-Pyrazol-4-yl)furan-2-carboxamido}-3-(pyridine-2-yl)-1H-pyrazol-1-yl]-N-cyclopropylazetidine-1-carboxamide, formate salt], the EC50 was 43.3 nM in the experiment with IL-23p19 (Homo sapiens, THP-1, 18 h) and 105 nM with IL-23 (p19/p40) (Homo sapiens, 18 h).
Turning to `CN1CC(n2cc(NC(=O)c3ccc(-c4cn[nH]c4)o3)c(-c3ccccn3)n2)C1` [Compound I-101, N-{1-(1-Methylazetidin-3-yl)-3-(pyridine-2-yl)-1H-pyrazol-4-yl}-5-(1H-pyrazol-4-yl)furan-2-carboxamide, formate salt], the EC50 came out at 14.3 nM in the experiment on IL-23p19 (Homo sapiens, THP-1, 18 h) and 50.1 nM with IL-23 (p19/p40) (Homo sapiens, 18 h).
For `CCO[C@H]1C[C@@H](n2cc(NC(=O)c3csc(-c4cn[nH]c4)n3)c(-c3cccc(C(F)(F)F)n3)n2)C1` [II-90, N-(1-((1,3-cis)-3-ethoxycyclobutyl)-3-(6-(trifluoromethyl)pyridin-2-yl)-1H-pyrazol-4-yl)-2-(1H-pyrazol-4-yl)thiazole-4-carboxamide] the same measures were 176 nM and 218 nM.
The corresponding values for `CCO[C@H]1C[C@@H](n2cc(NC(=O)c3csc(-c4c[nH]nc4C)n3)c(-c3cccc(C(F)(F)F)n3)n2)C1` [II-99, N-(1-((1,3-cis)-3-ethoxycyclobutyl)-3-(6-(trifluoromethyl)pyridin-2-yl)-1H-pyrazol-4-yl)-2-(3-methyl-1H-pyrazol-4-yl)thiazole-4-carboxamide] are 420 nM and 989 nM.
The corresponding values for `O=C(Nc1c[nH]nc1-c1ccccn1)c1csc(-c2cn[nH]c2)n1` [II-32, 2-(1H-pyrazol-4-yl)-N-(3-(pyridin-2-yl)-1H-pyrazol-4-yl)thiazole-4-carboxamide formic acid salt] are 361 nM and 191 nM.
Turning to `CCO[C@H]1CC[C@H](n2cc(NC(=O)c3csc(-c4cn[nH]c4)n3)c(-c3ncc(F)cc3F)n2)CC1` [II-180, N-(3-(3,5-difluoropyridin-2-yl)-1-((1r,4r)-4-ethoxycyclohexyl)-1H-pyrazol-4-yl)-2-(1H-pyrazol-4-yl)thiazole-4-carboxamide], the EC50 came to 80.2 nM in the experiment with IL-23p19 (Homo sapiens, THP-1, 18 h) and 263 nM with IL-23 (p19/p40) (Homo sapiens, 18 h).
The corresponding values for `CCN(CC)C(=O)n1cc(NC(=O)c2csc(-c3cn[nH]c3)n2)c(-c2ccccn2)n1` [II-128, N-(1-(diethylcarbamoyl)-3-(pyridin-2-yl)-1H-pyrazol-4-yl)-2-(1H-pyrazol-4-yl)thiazole-4-carboxamide] are 1150 nM and 2480 nM.
The corresponding values for `COc1ccc(-c2nn(C)cc2NC(=O)c2csc(-c3cn[nH]c3)n2)nc1` [II-58, N-(3-(5-methoxypyridin-2-yl)-1-methyl-1H-pyrazol-4-yl)-2-(1H-pyrazol-4-yl)thiazole-4-carboxamide] are 130 nM and 112 nM.
For `CCOCCn1cc(NC(=O)c2ccc(-c3c(C)n[nH]c3C)o2)c(-c2ccccn2)n1` [Compound I-58, 5-(3,5-dimethyl-1H-pyrazol-4-yl)-N-(1-(2-ethoxyethyl)-3-(pyridin-2-yl)-1H-pyrazol-4-yl)furan-2-carboxamide formate] the same measures were 2810 nM and 27500 nM.
